Laboratory results reported in PMC8623215, “Zhaoshumycins A and B, Two Unprecedented Antimycin-Type Depsipeptides Produced by the Marine-Derived Streptomyces sp. ITBB-ZKa6” (Marine Drugs, 2021).

System: MCF7 human breast cancer cell line
Assay: Cytotoxic activity test, MTT method, MCF7 cells
Assay type: cell-based
Conditions: for inhibition rate: compound at 50 µM, dissolved in DMSO
From the text: Dimethyl sulfoxide (DMSO) was used to dissolve the tested compounds.

Row | Substance | inhibition rate [%] | cytotoxic activity (in words) (preliminary in vitro test)
1 | neoantimycin D [Compound 5] | 91.08 | weak cytotoxic activity
2 | neoantimycin E [Compound 6] | 90.53 | 
